Test results: patent publication US9187486B2 (AMGEN INC., priority 2011, dated 2015)
Where a name gives a salt, the structure may show the parent alone. Read-outs that look alike come from different tables or passages of the source.

What was measured:
Pim-2 = Pim-2 (Homo sapiens (Human), UniProt Q9P1W9); experiment: Pim enzyme assay (HTRF, phosphorylation of biotinylated-BAD (S112) peptide), Pim-2; type: biochemical
From the text: (§1) Full-length human cDNAs encoding Pim-1 (MGC ID 3913552) or Pim-2 (IMAGE ID 5092935) were purchased from Invitrogen, Carlsbad, Calif. These cDNAs were used as templates in PCR reactions to produce full-length DNA clones of the PIMs. Oligonucleotide PCR primers for Pim-1 were 5′-[…]-3′ and 5′-[…]-3′. Oligonucleotide PCR primers for Pim-2 were 5′-[…]-3′ and 5′-[…]-3′. PCR products were digested with BclI and EcoRI for Pim-1 and BamHI and EcoRI for Pim-2 and ligated into a modified baculovirus transfer vector (pFastBac 1) cleaved with BamHI and EcoRI. For bacterial expression, the same cleaved PCR products encoding Pim-1 or Pim-2 were ligated into a modified E. coli expression vector pET28(a) cleaved with BamHI and EcoRI. Amino-terminal hexahistidine tags followed by a thrombin cleavage site were previously added to the vectors using standard methods of molecular biology. Recombinant baculoviruses expressing Pim-1 or Pim-2 were made using standard methods (Fastbac manual, Invitrogen, Carlsbad, Calif.). Infection of Sf9 cells was done at an m.o.i. of greater than 5 for 24-48 h. Cells were harvested by centrifugation and frozen at −80 C. For E. coli expression, cells carrying pET28-His6-Th-Pim-1 or pET28-His6-Th-Pim-2 were picked from a single colony and grown o/n in LB media. The o/n culture was used to inoculate a 2 liter flask with 500 mL media. This was grown o/n and used to inoculate 15-20 liters of Terrific Broth in a New Brunswick Scientific fermentor. The E. coli were grown at 37° C. to and OD600>1.6. The temperature was dropped to 18° C. and o/n expression was induced with 0.5 mM IPTG. Cells were harvested by centrifugation and frozen at −80° C.
(§2) The frozen cell pellets were thawed by stirring in chilled lysis buffer (0.05 M HEPES, pH 8.0, 0.25 M NaCl, 0.01 M 2-mercaptoethanol, 10% (w/v) glycerol, 0.5% (v/v) protease inhibitor cocktail (Sigma P-8340) at a ratio of 1 L/200 g cells until homogeneous. The thawed suspension was applied to a microfluidizer at 10,000 PSI to disrupt the cells and the whole lysates were clarified by centrifugation at 50,000×g for 90 min, 4° C. Imidazole was added to the clarified lysate to a final concentration of 2.5 mM and the lysate was mixed with 10 mL of Talon resin (Clontech) and the slurry rocked gently overnight at 4° C. The slurry was centrifuged at 1,000×g for 5 min, the supernatant decanted, and the resin suspended in 40 mL of lysis wash buffer (lysis buffer at 0.75 M NaCl). This step was repeated 3× and the resin was transferred to a 2.5 cm glass column. Ten column volumes of wash buffer (0.05 M HEPES, pH 8.0, 0.1 M NaCl, 0.01 M 2-mercaptoethanol, 10% (w/v) glycerol) were applied to the resin followed by 10 column volumes of elution buffer (0.05 M HEPES, pH 8.0, 0.25 M NaCl, 0.01 M 2-mercaptoethanol, 10% (w/v) glycerol, 0.1 M imidazole). Fractions were analyzed by SDS-PAGE and those containing the protein of interest were pooled and concentrated. The concentrated protein was applied to an Amersham Superdex 75 (XK 26/60) column equilibrated in 0.025 M Tris-HCl, pH 7.5, 0.1 M NaCl, 0.01 M 2-mercaptoethanol, 10% (w/v) glycerol. […] Fractions containing the monomeric protein of interest were pooled, concentrated to ˜2 mg/mL, and stored at −80° C.
(§3) The phosphorylation of biotinylated-BAD (S112) peptide by full length recombinant Pim-1, Pim-2, or Pim-3 protein was detected with streptavidin:Allophycocyanin (APC) conjugate and a europium (Eu) labeled antibody directed against phosphorylated-BAD (S112). Excitation of Eu by a high energy laser light (337 nm) leads to a transfer of energy to the APC molecule, and results in an emission at 665 nm. The fluorescence is directly proportional to the amount of phosphorylated BAD peptide present in the reaction.

Pim-1 = Pim-1 (Homo sapiens (Human), UniProt P11309); experiment: Pim enzyme assay (HTRF, phosphorylation of biotinylated-BAD (S112) peptide), Pim-1; type: biochemical
Pim-1, sequence (P11309 whole entry): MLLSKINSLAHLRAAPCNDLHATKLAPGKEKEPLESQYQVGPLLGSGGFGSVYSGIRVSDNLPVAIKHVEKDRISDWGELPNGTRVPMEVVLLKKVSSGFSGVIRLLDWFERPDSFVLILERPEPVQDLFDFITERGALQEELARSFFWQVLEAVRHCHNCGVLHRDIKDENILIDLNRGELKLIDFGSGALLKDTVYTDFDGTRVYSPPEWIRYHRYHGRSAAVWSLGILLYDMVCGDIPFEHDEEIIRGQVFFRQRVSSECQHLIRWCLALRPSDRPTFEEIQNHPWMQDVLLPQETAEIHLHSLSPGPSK
From the text: as §1, §2, §3

[1] = full length recombinant Pim-2, biotinylated-BAD (S112) peptide, HTRF, 96-well, read-out: Pim-2 IC50 IP
[2] = full length recombinant Pim-1, biotinylated-BAD (S112) peptide, HTRF, read-out: Pim_1_IC50
[3] = full length recombinant Pim-2, biotinylated-BAD (S112) peptide, HTRF, read-out: Pim2_IC50
[4] = full length recombinant Pim-1, biotinylated-BAD (S112) peptide, HTRF, 96-well, read-out: Pim-1 IC50 IP

Pim-2, sequence (Q9P1W9 whole entry): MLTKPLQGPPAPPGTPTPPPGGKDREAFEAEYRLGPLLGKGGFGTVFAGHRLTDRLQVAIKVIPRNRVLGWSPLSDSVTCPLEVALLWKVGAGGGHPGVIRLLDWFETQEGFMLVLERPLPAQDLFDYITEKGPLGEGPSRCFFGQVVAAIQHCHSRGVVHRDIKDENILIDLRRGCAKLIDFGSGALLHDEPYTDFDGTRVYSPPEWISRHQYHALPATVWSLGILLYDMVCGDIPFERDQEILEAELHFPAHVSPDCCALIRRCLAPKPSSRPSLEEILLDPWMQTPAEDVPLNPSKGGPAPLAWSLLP

Row | Structure (SMILES) | IC50 (Pim-1; [2]) [nM] | IC50 (Pim-2; [3]) [nM] | IC50 (Pim-1; [4]) [nM] | further results
1 | N[C@H]1CCCN(c2ccncc2Nc2ncc3ccc(-c4ncccc4F)nn23)C1 [Example 40, N-(4-((3S)-3-amino-1-piperidinyl)-3-pyridinyl)-2-(3-fluoro-2-pyridinyl)imidazo [1,5-b]pyridazin-7-amine] |  |  |  | IC50 (Pim-2; [1]): 1.1 nM
2 | CN(C)c1ccncc1Nc1ncc2ccc(-c3c(F)cccc3F)nn12 [Example 26, N^3-(2-(2,6-difluorophenyl)imidazo[1,5-b]pyridazin-7-yl)-N^4,N^4-dimethyl-3,4-pyridinediamine] | 534 | > 1000 |  | 
3 | Clc1ccccc1-c1ccc2cnc(Nc3cnccc3O[C@@H]3CCCNC3)n2n1 [Example 10, 2-(2-chlorophenyl)-N-(4-((3R)-3-piperidinyloxy)-3-pyridinyl)imidazo[1,5-b]pyridazin-7-amine bis(2,2,2-trifluoroacetate)] | 409 | > 1000 |  | 
4 | O[C@@H]1CCCN(c2ccncc2Nc2ncc3ccc(-c4nccs4)nn23)C1 [Example 18, (3R)-1-(3-((2-(1,3-thiazol-2-yl)imidazo[1,5-b]pyridazin-7-yl)amino)-4-pyridinyl)-3-piperidinol] | 99 | > 1000 |  | 
5 | O[C@H]1CCCN(c2ccncc2Nc2ncc3ccc(-c4c(F)cccc4F)nn23)C1 [Example 19, (3S)-1-(3-((2-(2,6-difluorophenyl)imidazo[1,5-b]pyridazin-7-yl)amino)-4-pyridinyl)-3-piperidinol] | 3 | 30 |  | 
6 | O=c1ccc(-c2ccncc2Nc2ncc3ccc(-c4c(F)cccc4F)nn23)c[nH]1 [Example 28, 3′-((2-(2,6-difluorophenyl)imidazo[1,5-b]pyridazin-7-yl)amino)-3,4′-bipyridin-6(1 H)-one] | 38 | 281 |  | 
7 | Cc1oncc1-c1ccncc1Nc1ncc2ccc(-c3c(F)cccc3F)nn12 [Example 102, 2-(2,6-Difluorophenyl)-N-(4-(5-methylisoxazol-4-yl)pyridin-3-yl)imidazo[1,5-b]pyridazin-7-amine bis(2,2,2-trifluoroacetate)] |  |  |  | IC50 (Pim-2; read-out: Pim-2 IC50 IP): > 1000 nM
8 | Nc1cncc(-c2ccncc2Nc2ncc3ccc(-c4c(F)cccc4F)nn23)c1 [Example 29, N3′-(2-(2,6-difluorophenyl)imidazo[1,5-b]pyridazin-7-yl)-3,4′-bipyridine-3′,5-diamine] | 206 | > 1000 |  | 
9 | O[C@@H]1CCCN(c2ccncc2Nc2ncc3ccc(-c4ccccc4Cl)nn23)C1 [Example 17, (3R)-1-(3-((2-(2-chlorophenyl)imidazo[1,5-b]pyridazin-7-yl)amino)-4-pyridinyl)-3-piperidinol] | 192 | > 1000 |  | 
10 | c1cc(N2CCNCC2)c(Nc2ncc3ccc(-c4nccs4)nn23)cn1 [Example 3, N-(4-(1-piperazinyl)-3-pyridinyl)-2-(1,3-thiazol-2-yl)imidazo[1,5-b]pyridazin-7-amine] | 54 | 154 |  | 
11 | N[C@@H]1CCCN(c2ccncc2Nc2ncc3ccc(-c4c(F)cccc4F)nn23)C1 [Example 69, (R)-N-(4-(3-aminopiperidin-1-yl)pyridin-3-yl)-2-(2,6-difluorophenyl)imidazo[1,5-b]pyridazin-7-amine] |  |  | 7.6 | IC50 (Pim-2; [1]): 35.2 nM
12 | N[C@H]1CCCN(c2ncncc2Nc2ncc3ccc(-c4ccccc4F)nn23)C1 [Example 14, (S)-N-(4-(3-aminopiperidin-1-yl)pyrimidin-5-yl)-2-(2-fluorophenyl)imidazo[1,5-b]pyridazin-7-amine] | 35 | 160 |  | 
13 | N[C@H]1CCCN(c2ccncc2Nc2ncc3ccc(Cl)nn23)C1 [Example 24, N-(4-((3S)-3-amino-1-piperidinyl)-3-pyridinyl)-2-chloroimidazo[1,5-b]pyridazin-7-amine] | 25 | 99 |  | 
14 | Clc1ccccc1-c1ccc2cnc(Nc3cnccc3N3CCNCC3)n2n1 [Example 5, 2-(2-chlorophenyl)-N-(4-(1-piperazinyl)-3-pyridinyl)imidazo[1,5-b]pyridazin-7-amine] | 107 | 640 |  | 
15 | O[C@@H]1CCN(c2ccncc2Nc2ncc3ccc(-c4c(F)cccc4F)nn23)C[C@H]1O (single isomer, unassigned) [Example 34, 1-(3-((2-(2,6-difluorophenyl)imidazo[1,5-b]pyridazin-7-yl)amino)-4-pyridinyl)-3,4-trans-piperidinediol] |  |  | 66.9 | 
16 | N[C@H]1CCCN(c2sncc2Nc2ncc3ccc(-c4c(F)cccc4F)nn23)C1 [Example 31, N-(5-((3S)-3-amino-1-piperidinyl)-4-isothiazolyl)-2-(2,6-difluorophenyl)imidazo[1,5-b]pyridazin-7-amine dihydrochloride] |  | 136 |  | IC50 (Pim-1; read-out: Pim_1_IC50): 50 nM

The next lines start with results.

Row | IC50 (Pim-1; [2]) [nM] | IC50 (Pim-2; [3]) [nM] | IC50 (Pim-1; [4]) [nM] | Structure (SMILES) | further results
17 |  |  | 4.5 | N[C@H]1CCCN(c2ccncc2Nc2nnc3ccc(-c4c(F)cccc4F)nn23)C1 [Example 67, (S)-N-(4-(3-aminopiperidin-1-yl)pyridin-3-yl)-6-(2,6-difluorophenyl)-[1,2,4]triazolo[4,3-b]pyridazin-3-amine 2,2,2-trifluoroacetate] | IC50 (Pim-2; [1]): 35.4 nM
18 |  |  | 38.5 | Fc1cccnc1-c1ccc2cnc(Nc3cnccc3N3CCCCC3)n2n1 [Example 71, 2-(3-Fluoropyridin-2-yl)-N-(4-(piperidin-1-yl)pyridin-3-yl)imidazo[1,5-b]pyridazin-7-amine bis(2,2,2-trifluoroacetate)] | 
19 |  |  | 38.3 | N[C@H]1CCCN(c2ccncc2Nc2nnc3cccnn23)C1 [Example 68, 2,2,2-trifluoroacetate] | IC50 (Pim-2; [1]): 73.7 nM
20 |  |  | 30.5 | N[C@@H]1C=C(c2ccncc2Nc2ncc3ccc(-c4c(F)cccc4F)nn23)CCC1 (single isomer, unassigned) [Example 84, N-(4-(3-aminocyclohex-1-en-1-yl)pyridin-3-yl)-2-(2,6-difluorophenyl)imidazo[1,5-b]pyridazin-7-amine tris(2,2,2-trifluoroacetate)] | 
21 |  |  | 29.6 | Fc1cccc(F)c1-c1ccc2cnc(Nc3cnccc3N3CCCCC3)n2n1 [Example 70, 2-(2,6-difluorophenyl)-N-(4-(piperidin-1-yl)pyridin-3-yl)imidazo[1,5-b]pyridazin-7-amine bis(2,2,2-trifluoroacetate)] | 
22 |  |  | 11.8 | C[C@H]1CN(c2ccncc2Nc2ncc3ccc(-c4c(F)cccc4F)nn23)CCN1 [Example 58, (S)-2-(2,6-difluorophenyl)-N-(4-(3-methylpiperazin-1-yl)pyridin-3-yl)imidazo[1,5-b]pyridazin-7-amine bis(2,2,2-trifluoroacetate)] | IC50 (Pim-2; [1]): 65.9 nM
23 |  |  | 150 | COC(C)CN(C)c1ccncc1Nc1ncc2ccc(-c3c(F)cccc3F)nn12 (centres unmarked) [Example 77, N3-(2-(2,6-difluorophenyl)imidazo[1,5-b]pyridazin-7-yl)-N4-(2-methoxypropyl)-N4-methylpyridine-3,4-diamine] | IC50 (Pim-2; [1]): > 1000 nM
24 |  |  | 33.8 | CC(C)CN(C)c1ccncc1Nc1ncc2ccc(-c3c(F)cccc3F)nn12 [Example 81, N3-(2-(2,6-Difluorophenyl)imidazo[1,5-b]pyridazin-7-yl)-N4-isobutyl-N4-methylpyridine-3,4-diamine] | 
